molecular target: T1, Prostaglandin D2 receptor 2 (Homo sapiens, UniProt Q9Y5Y4); test: Binding affinity to human CRTh2 assessed by competitive binding assay
T1 sequence (Q9Y5Y4 whole entry): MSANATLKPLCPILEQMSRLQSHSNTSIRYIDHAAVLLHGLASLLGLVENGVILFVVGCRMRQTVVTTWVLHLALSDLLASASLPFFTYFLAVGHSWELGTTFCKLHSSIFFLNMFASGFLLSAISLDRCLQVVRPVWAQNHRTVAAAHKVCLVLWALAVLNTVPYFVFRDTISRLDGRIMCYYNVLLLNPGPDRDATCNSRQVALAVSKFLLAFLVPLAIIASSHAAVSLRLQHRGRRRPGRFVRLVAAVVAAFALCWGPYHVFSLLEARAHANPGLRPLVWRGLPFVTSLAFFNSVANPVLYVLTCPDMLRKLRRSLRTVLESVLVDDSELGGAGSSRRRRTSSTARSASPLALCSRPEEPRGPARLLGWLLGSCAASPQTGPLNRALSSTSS

SMILES | Ki [nM]
C[C@@H]1CN(c2ccc(F)cc2)CCN1C(=O)c1ccc2c(=O)n(-c3ccc(F)cc3)c(CCCCC(=O)O)cc2c1 | 24
O=C(O)CCCCc1cc2cc(C(=O)Nc3noc(Cc4ccc(F)cc4)n3)ccc2c(=O)n1-c1ccc(F)cc1 | 7.8
CC1(c2nc3ccc(F)cc3o2)CC(NC(=O)c2ccc3c(=O)n(-c4ccc(F)cc4)c(CCCCC(=O)O)cc3c2)=NO1 (stereo not drawn) | 26
O=C(O)CCCCc1cc2cc(C(=O)Nc3cc(Cc4ccc(F)cc4)on3)ccc2c(=O)n1-c1ccc(F)cc1 | 11
O=C(O)CCCCc1cc2cc(C(=O)Nc3noc(C4Cc5ccccc5C4)n3)ccc2c(=O)n1-c1ccc(F)cc1 | 22

The remaining lines, values ahead:

Ki [nM] | SMILES
9.2 | C[C@@H](NC(=O)c1ccc2c(=O)n(-c3ccc(C#N)cc3)c(CCCCC(=O)O)cc2c1)c1ccc(F)cc1
5.9 | C[C@@H](NC(=O)c1ccc2c(=O)n(-c3ccc(F)cc3)c(CCCCC(=O)O)cc2c1)c1ccc(F)cc1
8.5 | COc1ccc(-n2c(CCCCC(=O)O)cc3cc(C(=O)N[C@H](C)c4ccc(F)cc4)ccc3c2=O)cc1
13 | CC(c1ccc(F)cc1)c1nc(NC(=O)c2ccc3c(=O)n(-c4ccc(F)cc4)c(CCCCC(=O)O)cc3c2)no1 (stereo not drawn)
703 | C[C@@H](NC(=O)c1ccc2c(=O)[nH]c(CCCCC(=O)O)cc2c1)c1ccc(F)cc1

molecular target: T1, Prostaglandin D2 receptor 2; test: Antagonist activity at CRTh2 (unknown origin) assessed as inhibition of CD11b activation; assay type: functional

SMILES | Ki [nM]
O=C(O)CCCCc1cc2cc(C(=O)N[C@@H]3CCCc4cc(F)ccc43)ccc2c(=O)n1-c1ccc(F)cc1 | 1.31
O=C(O)CCCCc1cc2cc(C(=O)N[C@@H]3CCCc4ccccc43)ccc2c(=O)n1-c1ccc(F)cc1 | 0.4
C[C@@H](NC(=O)c1ccc2c(=O)n(-c3ccc(F)cc3)c(CCCCC(=O)O)cc2c1)c1ccc(F)cc1 | 0.23
